Results published in US20110190245A1, “NANOSUSPENSION WITH ANTIFUNGAL MEDICATION TO BE ADMINISTERED VIA INHALATION WITH IMPROVED IMPURITY PROFILE AND SAFETY” (priority 2008, published 2011).

Tested on: A. fumigatus
Test: Second experiment: survival of immune-suppressed balb-c mice infected intranasally with A. fumigatus conidia
Type: in vivo, Aspergillus fumigatus
Design: animals that had died by day 6 after infection: dose or concentration left out as unconfirmed
Procedure: In a second experiment, male balb-c mice were utilized. The animals of all groups were immune-suppressed using 100 mg/kg body weight cyclophosphamide at day −4, −1, 0, 2, 5 and 8. On day −1, the animals received 100 mg/kg cyclophosphamide i.p. and 200 mg/kg cortisone acetate subcutaneous (24±2 hours before infection). Additionally, the animals were treated by inhalation of itraconazole using the same inhalation device as described in the study above. At day 0, the animals were infected intranasally with 2.5×104 A. fumigatus conidia.
Additionally, one group of mice used as reference group was treated with Amphotericin B i.p. using 3 mg/kg daily.
The drug effect was assessed as the number of surviving animals. As expected, 9 out of 12 control animals had already died on day 6 after infection and the remaining animals died with the exception of one until day 9. For animals treated as decribed above, i.e. using the 10% aerosol of itraconazole twice daily, a strong effect was seen.

SMILES: C[C@@H]1[C@H](O)[C@@H](C)/C=C/C=C/C=C/C=C/C=C/C=C/C=C/[C@H](O[C@@H]2O[C@H](C)[C@@H](O)[C@H](N)[C@@H]2O)C[C@@H]2O[C@](O)(C[C@@H](O)C[C@@H](O)[C@H](O)CC[C@@H](O)C[C@@H](O)CC(=O)O[C@H]1C)C[C@H](O)[C@H]2C(=O)O [Amphothericin B, Amphotericin B]
- animals that had died by day 6 after infection (12 per group, control animals): 3
- animals that had died at the end of the observation period (14 days observation, itraconazole 10% aerosol twice daily, Amphotericin B i.p. 3 mg/kg daily): 9 out of 12
